Results: article PMC5259778, “Candidate pheromone receptors of codling moth Cydia pomonella respond to pheromones and kairomones” (Scientific Reports, 2017)

How the values were obtained:
CpomOrco = CpomOrco (Cydia pomonella, UniProt H9A5M2); test: Calcium imaging of HEK293T cells expressing homomeric CpomOrco; assay type: cell-based; conditions: peak amplitudes normalized to response at 1000 μM agonist, read-out: [A]1/2 half-effective concentration of agonist, calcium response
Experimental: HEK293T cells were grown in HEK cell media [Dulbecco’s modified Eagle’s medium containing 10% fetal bovine serum (MP Biomedicals, Solon, OH, USA), 2.0 mM L-glutamine, and 100 μg/mL Penicillin/Streptomycin (Invitrogen)] at 37 °C and 5% CO2. To test transient expression of CpomORs for calcium imaging or patch-clamp recording experiments, 35-mm petri dishes containing semi-confluent HEK293T cells were transiently transfected. To transfect cells with CpomOrco, we used 1.0 μg of pcDNA5/TO/CpomOrco DNA. In order to promote expression of the OR[51], we used double aliquots for pcDNA5/TO/CpomOR DNAs (2.0 μg), combined with 1.0 μg of pcDNA5/TO/CpomOrco for co-transfections (CpomOrco + ORs). […]
(§1) Fluorescence imaging was performed using Imaging Workbench 6 software (INDEC BioSystems, Santa Clara, CA, USA). Each cell was assigned a region of interest (ROI) and changes in fluorescence intensity within each ROI were measured and expressed as the fractional change in fluorescence intensity (dF) or in some cases as dF/F0 where F0 is the basal fluorescence level before agonist application. […] Continuous traces of multiple responses were compensated for slow drift of the baseline fluorescence when necessary. […]

[1] = system: Un-transfected cells (HEK293T); test: Whole-cell patch-clamp recording of un-transfected HEK293T cells; assay type: cell-based, human; conditions: 12 cells tested
Experimental: The OR channel activity was investigated using whole-cell and outside-out patch-clamp recordings. The currents were measured with a 200B patch-clamp amplifier (Molecular Devices) and a digital interface (Digidata 1320 A, Molecular Devices), low pass filtered at 5.0 kHz, sampled at 1-2 kHz. […] OR channel related currents were investigated at a holding potential of -50/+50 mV unless otherwise specified. The polarity of the currents/voltages was presented relative to intracellular membrane surface. Appropriate corrections for liquid junction potentials were made when necessary. Patch pipettes were fabricated from borosilicate capillary glass (BF150-86-10, Sutter Instrument, CA, USA) using a Flaming-Brown micropipette puller (P-87, Sutter Instrument). Only patches with initial cell-attached seal resistance estimated higher than 1.0 GOhms were used in the experiments. Intracellular (pipette) solution for whole-cell experiments was NaCl 140 mM, EGTA 0.5 mM, Hepes 10 mM, pH 7.4 (adjusted with Tris-base, standard Na^+ 140 mM), while bath solution was usually NaCl 140 mM, CaCl2 1.0 mM, MgCl2 0-1.0 mM, KCl 5.0 mM, Hepes 10 mM, pH 7.4 (adjusted with Tris-base or NaOH). The OR channel current noise was recorded using outside-out patches excised from HEK293T cells and evoked by stimulation with 250 μM VUAA3. […]

CpomOrco + OR complexes = test: Calcium imaging of HEK293T cells expressing heteromeric CpomOrco + OR complexes; assay type: cell-based, Cydia pomonella; conditions: heteromeric complexes; peak amplitudes normalized to response at 1000 μM agonist; read-out: [A]1/2 half-effective concentration of agonist, calcium response
Experimental: HEK293T cells were grown in HEK cell media [Dulbecco’s modified Eagle’s medium containing 10% fetal bovine serum (MP Biomedicals, Solon, OH, USA), 2.0 mM L-glutamine, and 100 μg/mL Penicillin/Streptomycin (Invitrogen)] at 37 °C and 5% CO2. To test transient expression of CpomORs for calcium imaging or patch-clamp recording experiments, 35-mm petri dishes containing semi-confluent HEK293T cells were transiently transfected. To transfect cells with CpomOrco, we used 1.0 μg of pcDNA5/TO/CpomOrco DNA. In order to promote expression of the OR[51], we used double aliquots for pcDNA5/TO/CpomOR DNAs (2.0 μg), combined with 1.0 μg of pcDNA5/TO/CpomOrco for co-transfections (CpomOrco + ORs). To report expression for calcium imaging experiments, 1.0 μg of a separate plasmid DNA [pEBFP2-Nuc, a gift from Robert Campbell (Addgene plasmid # 14893[52])] carrying the coding sequence for a blue fluorescent protein (BFP) was used. In patch-clamp recordings, 1.0 μg of a separate plasmid DNA (pXOOM, Clontech) carrying the coding sequence for a green fluorescent protein (GFP) was used to report expression. In order to report candidate OR-expressing cells, expression of both fluorescent reporter genes was under the regulation of the same promoter for CpomOR genes (CMV). Transfection DNAs were dissolved in 100 μL sterile DMEM, mixed with 3.0 μL Calfectin (SignaGen, Rockville, MD, USA) following the recommended protocol. To estimate transfection efficiency, a parallel transfection was conducted using the positive control vector pcDNA5/TO/LACZ (Invitrogen) and staining with 0.1% XGal[53]. […]
as §1

Sequence of CpomOrco (H9A5M2 entry or part of it): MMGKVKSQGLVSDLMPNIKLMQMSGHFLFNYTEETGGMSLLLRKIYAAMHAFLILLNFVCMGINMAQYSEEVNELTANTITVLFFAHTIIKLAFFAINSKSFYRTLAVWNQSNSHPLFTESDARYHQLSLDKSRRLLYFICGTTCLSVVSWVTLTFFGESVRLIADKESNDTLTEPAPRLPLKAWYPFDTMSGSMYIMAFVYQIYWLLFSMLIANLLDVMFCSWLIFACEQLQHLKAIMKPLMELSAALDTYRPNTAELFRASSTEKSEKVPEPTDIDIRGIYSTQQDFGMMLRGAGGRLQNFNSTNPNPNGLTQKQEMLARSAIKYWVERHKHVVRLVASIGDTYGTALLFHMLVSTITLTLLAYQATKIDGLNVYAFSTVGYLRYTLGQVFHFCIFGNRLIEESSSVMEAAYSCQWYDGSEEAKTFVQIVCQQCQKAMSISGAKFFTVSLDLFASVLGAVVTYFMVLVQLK

With CCn1c(SCC(=O)Nc2ccc(C(C)C)cc2)nnc1-c1ccncc1 [VUAA3, acetamide,2-[[4-ethyl-5-(4-pyridinyl)-4H-1,2,4-triazol-3-yl]thio]-N-[4-(1-methylethyl)phenyl]-] the EC50 (CpomOrco) was roughly 362 µM, the “sensitivity of un-transfected cells” value [1] was “not sensitive” and the EC50 (CpomOrco + OR complexes) was roughly 140 µM.
